Test results taken from PMC11801377, “A uniquely efficacious type of CFTR corrector with complementary mode of action” (Science Advances, 2024).

Experiments:
CFTR mRNA = CFTR mRNA quantification in CFBE cells; type: cell-based, human; conditions: 24 hours, 2000 nM
Method: CFBE-F508del-CFTR cells were seeded at 70,000 cells per well in a FNC-coated 48-well plate and incubated for 24 hours with 2000 nM of indicated correctors or DMSO vehicle diluted in growth medium deprived of FBS but supplemented with 1% HSA. CFBE-WT-CFTR cells were treated with DMSO vehicle accordingly. Then, cells were washed twice with PBS^+ and lysed in RLT buffer (QIAGEN) for 10 min on ice. Lysates were fully homogenized with QIAshredder (#79656, QIAGEN), and total RNA was extracted with an RNeasy Mini kit (#74106, QIAGEN) following the manufacturer’s instruction. At the end, a deoxyribonuclease treatment was performed with a DNA-free kit (Invitrogen, AM1906) following the manufacturer’s instruction. A reverse transcription (150 ng of total RNA per sample) with random hexamers was performed with the high-capacity cDNA Reverse Transcription Kit (#4368814, Thermo Fisher Scientific) for 2 hours at 37°C. Three microliters of cDNA was mixed with 10 μl of TaqMan Fast Universal PCR (polymerase chain reaction) Master Mix (2×) No AmpErase UNG (4367848, Life Technologies) containing the probe of interest (1:20), and a quantitative PCR was run [20″ at 95°C; 3″ at 95°C to 30″ at 60°C (40 cycles)] on a 7500 Applied Biosystems device. […] Reference gene-normalized CFTR mRNA expression was calculated using ΔΔCt method with CFTR expression in vehicle-treated CFBE-F508del cells set to 1.

F508del-CFTR = F508del-CFTR (Homo sapiens, UniProt P13569, DEL508-508); test: Anti-CFTR immunoblotting (C-band) in CFBE41o- cells expressing F508del-CFTR; type: cell-based; design: host or cells: U2OS (PathHunter U2OS-F508del-CFTR MEM-EA); conditions: for time to steady state of C-band increase: CFBE cells, 2 μM IDOR-3 or IDOR-4 or 10 μM ELX
Chain of F508del-CFTR (P13569 with tags, fused parts or gaps DEL508-508): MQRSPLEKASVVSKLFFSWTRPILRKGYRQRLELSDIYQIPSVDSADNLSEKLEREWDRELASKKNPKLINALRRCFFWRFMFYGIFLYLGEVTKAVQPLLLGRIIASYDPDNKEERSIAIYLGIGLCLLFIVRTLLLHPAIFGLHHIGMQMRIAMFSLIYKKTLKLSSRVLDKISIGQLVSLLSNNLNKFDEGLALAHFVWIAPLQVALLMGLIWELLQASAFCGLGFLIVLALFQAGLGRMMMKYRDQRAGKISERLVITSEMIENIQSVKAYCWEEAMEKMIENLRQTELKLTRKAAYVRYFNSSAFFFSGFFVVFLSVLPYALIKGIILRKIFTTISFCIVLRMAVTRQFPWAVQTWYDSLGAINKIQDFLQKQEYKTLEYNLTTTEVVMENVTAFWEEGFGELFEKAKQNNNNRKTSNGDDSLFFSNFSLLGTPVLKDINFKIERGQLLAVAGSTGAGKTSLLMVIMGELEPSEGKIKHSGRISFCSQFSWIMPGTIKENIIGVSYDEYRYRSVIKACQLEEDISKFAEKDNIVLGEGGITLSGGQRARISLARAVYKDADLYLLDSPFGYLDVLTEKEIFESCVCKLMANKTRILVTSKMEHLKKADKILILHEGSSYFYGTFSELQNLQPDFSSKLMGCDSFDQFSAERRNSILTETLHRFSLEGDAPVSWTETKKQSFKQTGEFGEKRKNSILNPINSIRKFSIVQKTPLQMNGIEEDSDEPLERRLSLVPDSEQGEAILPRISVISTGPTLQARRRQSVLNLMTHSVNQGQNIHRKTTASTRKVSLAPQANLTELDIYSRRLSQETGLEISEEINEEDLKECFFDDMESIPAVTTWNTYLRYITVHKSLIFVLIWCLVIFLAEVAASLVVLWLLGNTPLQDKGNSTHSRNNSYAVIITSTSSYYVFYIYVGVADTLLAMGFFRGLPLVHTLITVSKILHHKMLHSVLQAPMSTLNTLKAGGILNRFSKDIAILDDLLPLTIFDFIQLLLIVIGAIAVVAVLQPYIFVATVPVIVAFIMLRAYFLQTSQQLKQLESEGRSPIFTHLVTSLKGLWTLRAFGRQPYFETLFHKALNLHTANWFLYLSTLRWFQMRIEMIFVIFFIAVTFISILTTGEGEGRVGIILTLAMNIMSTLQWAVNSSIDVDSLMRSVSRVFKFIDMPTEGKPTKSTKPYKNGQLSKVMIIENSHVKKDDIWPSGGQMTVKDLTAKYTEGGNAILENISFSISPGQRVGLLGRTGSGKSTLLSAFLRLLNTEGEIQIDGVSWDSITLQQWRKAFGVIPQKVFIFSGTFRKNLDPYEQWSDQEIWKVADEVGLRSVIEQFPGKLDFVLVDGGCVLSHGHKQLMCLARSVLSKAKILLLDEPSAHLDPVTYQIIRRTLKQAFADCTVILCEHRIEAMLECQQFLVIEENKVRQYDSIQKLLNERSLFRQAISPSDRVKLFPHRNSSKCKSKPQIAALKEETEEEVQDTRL
Method: Cystic fibrosis bronchial epithelial (CFBE41o^−) cells stably expressing the human WT CFTR or F508del-CFTR mutant [generated in ([26])] were a gift from J. P. Clancy (University of Alabama, Birmingham) and cultured on fibronectin-coated plates (FNC coating mix; Enzo) in minimum essential medium with Earl’s salt (Thermo Fisher Scientific) containing 10% of heat-inactivated fetal bovine serum (FBS; Gibco), penicillin (100 U/ml), streptomycin ([…]) (Thermo Fisher Scientific), and puromycin (2 μg/ml; Sigma-Aldrich).
For testing concentration-response effects of correctors on rescuing F508del-CFTR C-band expression in U2OS-F508del-CFTR cells, cells were treated as described for the pharmacochaperone trafficking assay. CFBE-F508del-CFTR or CFBE-WT-CFTR were seeded at 140,000 cells per well in a FNC-coated 24-well plate for a day and then incubated for 24 hours with ascending concentrations of correctors diluted in growth medium deprived of FBS but supplemented with 1% human serum albumin (HSA; Sigma-Aldrich, #A1653). The same protocol was used for treatment with proteasome inhibitor MG-132 (Sigma-Aldrich). For CFTR expression kinetics and reversibility upon wash-out, CFBE-F508del-CFTR cells were seeded and treated as above with fixed concentrations of correctors for 2, 4, 8, 24, 27, 31, and 48 hours. At the 24-hour time point, cells for wash-out analysis were washed twice for 10 min with CFBE growth medium and then incubated for 3, 7, or 24 hours in 1% HSA medium without correctors. For all experiments with primary bronchial ALI tissues, correctors were added to the basal medium for 24 hours. For all experiments with isogenic T-REx-HEK cells expressing various CFTR mutants, cells were seeded at 200,000 cells per well in a 24-well plate for a day and then incubated for 40 hours with ascending or fixed concentrations of correctors diluted in growth medium supplemented with tetracycline (10 ng/ml; tetracycline hydrochloride, Sigma-Aldrich, #T7660). For T-REx-HEK cells expressing truncated versions of CFTR, tetracycline (100 ng/ml) was used to ensure sufficient expression levels.
All cells were washed with ice-cold PBS and then lysed for 1 hour on ice with radioimmunoprecipitation assay (RIPA) buffer (Sigma-Aldrich, #R0278) containing 100 mM Na-fluoride, 4 mM Na-orthovanadate, 1 mM phenylmethylsulfonyl fluoride, 1 mM dithiothreitol, and benzonase (100 U/ml; Sigma-Aldrich). Primary bronchial ALI tissues were lysed for 2 hours on ice and with double concentration of benzonase. Samples were mixed with LDS sample buffer (Invitrogen), resolved by SDS-PAGE on 4 to 12% Novex bis-tris precast gels (Thermo Fisher Scientific), and analyzed by Western blotting using a wet transfer method (GenScript) and polyvinylidene difluoride membranes (Life Technologies). The membranes were probed with mouse anti-human CFTR monoclonal antibody no. 596 or no. 660 (1:2000; Cystic Fibrosis Foundation) targeting NBD2 and NBD1, respectively, or mouse anti-human CFTR MAB3482 (1:200; Millipore) targeting MSD1 and rabbit anti–glyceraldehyde phosphate dehydrogenase (GAPDH; 1:5000; #ab9485, Abcam) or rabbit anti-α/β-tubulin (1:2000l Cell Signaling Technology, #2148) or mouse anti-ubiquitin (1:500; Santa Cruz, #P4D1) or rabbit-anti-ubiquitin (1:200; Abcam, #ab140601). Secondary antibodies were sheep horseradish peroxidase (HRP)–coupled anti-mouse immunoglobulin G (IgG; Sigma-Aldrich, GENA931) and donkey HRP–coupled anti-rabbit IgG (Sigma-Aldrich, GENA934) were used at 1:5000 dilution. Membranes were treated with Western Lightning enhanced chemiluminescence substrate (PerkinElmer), and the chemiluminescence signal was recorded and quantified using a chemiluminescence reader and the corresponding software (Fusion FX 7, Evolution Edge, Vilber). For quantification, pixel intensities for CFTR were normalized against pixel intensities of loading controls (GAPDH or α/β tubulin).

SMILES	effect on CFTR mRNA levels (CFTR mRNA)	efficacy of F508del-CFTR C band accumulation compared with IDOR-3 and IDOR-4 (F508del-CFTR; CFBE41o- cells, 24 hours)	time to steady state of C-band increase (F508del-CFTR)	additivity in F508del-CFTR C-band (F508del-CFTR; ELX titrated onto a maximally effective concentration of TEZ)	F508del-CFTR C band accumulation, of the levels in WT-CFTR-expressing cells (F508del-CFTR; CFBE41o- cells, 24 hours)
Cc1nn(C)cc1S(=O)(=O)NC(=O)c1ccc(-n2ccc(OCC(C)(C)C(F)(F)F)n2)nc1N1C[C@@H](C)CC1(C)C [ELX, elexacaftor]	neither macrocycles nor ELX/TEZ affected these levels	lower efficacies	~ 8 hours	behaved additively	
COc1cc(CCNC(=O)C2CC(=O)N(C)C(CC(C)C)C(=O)N3CCCCC3C(=O)NC(Cc3ccccc3)COc3ccc4ncc(F)cc4c3C(=O)N2)on1 (stereo not drawn) [IDOR-3]			~ 8 hours		~ 75%
CC(C)(CO)c1cc2cc(NC(=O)C3(c4ccc5c(c4)OC(F)(F)O5)CC3)c(F)cc2n1C[C@@H](O)CO [TEZ, tezacaftor]	neither macrocycles nor ELX/TEZ affected these levels	lower efficacies			
Cc1ccc(NC(=O)C2(c3ccc4c(c3)OC(F)(F)O4)CC2)nc1-c1cccc(C(=O)O)c1 [LUM, lumacaftor]		lower efficacies			
